Series [1] in a line: Molar enthalpy of transition or fusion. The following applies: Crystal; DSC.
For series [2] the following is noted: Crystal; DTA.

Each structure is given as a SMILES string. ± gives the expanded uncertainty stated by the source.

For `CCOC(=O)[C@H](CCc1ccccc1)N[C@@H](C)C(=O)O` [((S)-1-ethoxy-1-oxo-4-phenylbutan-2-yl)-L-alanine], the “Molar enthalpy of transition or fusion” value in series [1] was 13.9 ± 0.335 kcal/mol. The Normal melting temperature in series [2] was found to be 153.36 ± 1.1 °C.

Source of the values: the NIST ThermoML archive (doi:10.1021/acs.jced.8b00333).
